pIC50: −log10 of the molar value. Active and inactive are the calls of the source. The rule behind the calls is not given here.
Legend:
[1] = tested on: Salmonella enterica; test: Antibacterial activity against Salmonella enteritidis ATCC 13076 at 250 ug/ml by disk diffusion method; type: functional, organism-based; details: Salmonella enterica subsp. enterica serovar Enteritidis
[2] = tested on: P388; test: Cytotoxicity against mouse P388 cells by MTT assay; type: functional, cell-based
[3] = tested on: HT-29; test: Cytotoxicity against human HT-29 cells by MTT assay; type: functional, cell-based
[4] = tested on: Human betaherpesvirus 5; test: Antiviral activity against human cytomegalovirus infected HEL cells after 7 days by; type: functional, organism-based; details: Human betaherpesvirus 5, HEL, 168 h
[5] = tested on: HEL; test: Cytotoxicity against HEL cells by MTT assay; type: cell-based; details: Homo sapiens

Row | SMILES | Activity [1] | IC50 [2] | IC50 [3] | pIC50 [4] | IC50 [5]
1 | COC(=O)/C1=C/CC/C(C)=C/[C@@H]2OCC(C)=C2CC[C@@]2(C)O[C@@H]2CC1 [LOBOPHYNIN C] | inactive | > 50 µg/mL | > 50 µg/mL | 5.24 | > 50 µg/mL
2 | COC(C)(C)/C1=C/C=C(\C)CC[C@@H]2O[C@@]2(C)CC/C=C(/C(=O)O)CC1 [EHRENBEROXIDE A] | inactive | > 50 µg/mL | > 50 µg/mL | 4.61 | > 50 µg/mL
3 | C/C1=C\C=C(\C(C)C)CC[C@@]2(C)O[C@H](C1)C[C@@](C)(O)CC[C@@H]2O [EHRENBEROXIDE B] | inactive | > 50 µg/mL | > 50 µg/mL | 5.33 | > 50 µg/mL

— ChEMBL document CHEMBL1154903, “Cembranoids from the octocoral Sarcophyton ehrenbergi” (J Nat Prod, 2010)
